Results published in ChEMBL document CHEMBL3112423, “Selective EP4 Antagonist May Be Useful in Treating Arthritis and Arthritic Pain” (ACS Med Chem Lett, 2014).
pKi: −log10 of the molar value.

Assays:
[1] = target: T1, Prostaglandin E2 receptor EP3 subtype (Homo sapiens, UniProt P43115); assay: Displacement of [3H]-PGE2 from human EP3 receptor expressed in HEK293 cell membranes after 90 mins by topcount scintillation counting analysis
T1 sequence (P43115 whole entry): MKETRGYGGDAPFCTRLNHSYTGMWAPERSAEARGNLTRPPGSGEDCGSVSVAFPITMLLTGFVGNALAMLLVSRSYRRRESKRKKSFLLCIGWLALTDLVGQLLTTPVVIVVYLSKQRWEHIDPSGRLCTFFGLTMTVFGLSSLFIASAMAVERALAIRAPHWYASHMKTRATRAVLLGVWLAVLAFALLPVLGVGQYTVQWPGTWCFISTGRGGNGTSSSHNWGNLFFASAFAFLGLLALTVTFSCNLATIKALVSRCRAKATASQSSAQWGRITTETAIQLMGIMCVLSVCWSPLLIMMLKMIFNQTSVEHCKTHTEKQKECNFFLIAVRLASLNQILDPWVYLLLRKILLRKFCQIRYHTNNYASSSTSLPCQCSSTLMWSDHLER

[2] = target: T2, Prostaglandin E2 receptor EP1 subtype (Homo sapiens, UniProt P34995); assay: Displacement of [3H]-PGE2 from human EP1 receptor expressed in recombinant HEK293 cell membranes after 90 mins by topcount scintillation counting analysis
T2 sequence (P34995 whole entry): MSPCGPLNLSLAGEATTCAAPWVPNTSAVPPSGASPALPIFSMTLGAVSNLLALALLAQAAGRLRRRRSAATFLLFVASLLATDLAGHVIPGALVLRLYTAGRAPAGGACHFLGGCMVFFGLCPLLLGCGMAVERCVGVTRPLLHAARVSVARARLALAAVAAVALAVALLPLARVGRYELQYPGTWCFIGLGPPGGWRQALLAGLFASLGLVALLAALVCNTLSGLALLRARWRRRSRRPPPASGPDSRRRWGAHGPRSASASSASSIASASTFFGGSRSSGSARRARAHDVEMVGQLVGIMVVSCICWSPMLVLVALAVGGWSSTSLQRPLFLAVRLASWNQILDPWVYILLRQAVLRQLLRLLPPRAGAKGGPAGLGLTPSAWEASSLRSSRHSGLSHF

pKi [1]: < 4.85
pKi [2]: < 4.76
Compound: C[C@H](NC(=O)[C@H]1CCCCN1CCOc1ccccc1)c1ccc(C(=O)O)cc1
